Measured values from ChEMBL document CHEMBL3639344, “Fused heterocyclic compounds as orexin receptor modulators” (2014).

Assays:
Orexin receptor type 2 = target: T1, Orexin receptor type 2 (Homo sapiens, UniProt O43614); test: (§1) Radioligand Binding: HEK293 stably expressing human orexin-2 receptor (Genebank accession number NM 001526) were grown to confluency in DMEM/F12 (Gibco, Cat #11039), in DMEM, 10% FBS, 1× Pen/Strep, 1× NaPyruvate, 1×HEPES, 600 ug/ml G418 media on 150 cm2 tissue culture plates, washed with 5 mM EDTA in PBS (HyClone Dulbecco's Phosphate Buffered Saline 1× with Calcium and Magnesium, Cat #SH30264.01, hereafter referred to simply as PBS) and scraped into 50 ml tubes. After centrifugation (2K xG, 10 min at 4° C.), the supernatant was aspirated and the pellets frozen and stored at −80° C. Cells were resuspended in PBS in the presence of 1 tablet of protease inhibitor cocktail (Roche, Cat. #11836145001) per 50 mL.
T1 sequence (O43614 whole entry): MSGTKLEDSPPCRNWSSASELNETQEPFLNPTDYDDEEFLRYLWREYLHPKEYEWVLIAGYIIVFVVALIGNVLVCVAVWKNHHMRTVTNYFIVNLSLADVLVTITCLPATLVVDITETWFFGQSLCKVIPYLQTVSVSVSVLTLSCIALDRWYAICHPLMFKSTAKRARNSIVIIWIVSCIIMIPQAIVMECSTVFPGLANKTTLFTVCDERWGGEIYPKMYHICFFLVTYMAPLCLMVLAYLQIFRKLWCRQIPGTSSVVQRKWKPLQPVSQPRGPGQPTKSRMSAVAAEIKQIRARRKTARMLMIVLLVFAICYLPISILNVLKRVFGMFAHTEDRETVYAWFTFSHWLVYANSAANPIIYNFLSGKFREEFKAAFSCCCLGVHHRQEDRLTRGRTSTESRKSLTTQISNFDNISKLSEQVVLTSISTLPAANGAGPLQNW

[1] = target: T2, Orexin/Hypocretin receptor type 1 (Homo sapiens, UniProt O43613); test: as §1, with “Chinese ovary cells (CHO)” for “HEK293”, “orexin 1” for “orexin-2”, “#11039),” for “#11039), in DMEM,”, “Pen/Strep,” for “Pen/Strep, 1× NaPyruvate, 1×HEPES,”, “μg/mL” for “ug/ml”, “Phoshpate” for “Phosphate”; type: cell-based
T2 sequence (O43613 whole entry): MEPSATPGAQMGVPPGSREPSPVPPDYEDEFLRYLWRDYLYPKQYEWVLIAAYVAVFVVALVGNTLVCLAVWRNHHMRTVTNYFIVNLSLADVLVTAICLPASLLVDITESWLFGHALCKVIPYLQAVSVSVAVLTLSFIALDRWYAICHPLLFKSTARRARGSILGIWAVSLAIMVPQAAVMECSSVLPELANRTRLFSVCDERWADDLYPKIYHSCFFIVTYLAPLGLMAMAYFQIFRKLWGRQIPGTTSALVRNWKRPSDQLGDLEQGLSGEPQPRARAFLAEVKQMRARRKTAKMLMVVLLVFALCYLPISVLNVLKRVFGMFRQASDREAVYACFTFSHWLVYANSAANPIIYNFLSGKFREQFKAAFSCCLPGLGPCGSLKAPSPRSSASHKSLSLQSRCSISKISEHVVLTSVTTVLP

Cc1cc(C)nc(N2C[C@@H]3CCN(C(=O)c4ccccc4-c4nc(C)no4)C[C@@H]32)n1
Ki (Orexin receptor type 2): 59 nM | Ki [1]: 1590 nM
